Test results from ChEMBL document CHEMBL4196076, “An access to a library of novel triterpene derivatives with a promising pharmacological potential by Ugi and Passerini multicomponent reactions” (Eur J Med Chem, 2018).

Assays:
FaDu = assay: Cytotoxicity against human FADU cells after 96 hrs by sulforhodamine-B assay; type: functional, cell-based
A549 = assay: Cytotoxicity against human A549 cells after 96 hrs by sulforhodamine-B assay; type: functional, cell-based; conditions: A549, 96 h
A2780 [1] = assay: Cell cycle arrest in human A2780 cells assessed as accumulation at G0/G1 phase at 2 uM after 48 hrs by propidium iodide/RNase-staining based flow cytometric analysis (reference value: 57.5 +/- 4.5%); type: functional
A2780 [2] = assay: Cell cycle arrest in human A2780 cells assessed as accumulation at G0/G1 phase at 1.2 uM after 48 hrs by propidium iodide/RNase-staining based flow cytometric analysis (reference value: 57.5 +/- 4.5%); type: functional
A2780 [3] = assay: Cell cycle arrest in human A2780 cells assessed as accumulation at G2/M phase at 1.2 uM after 48 hrs by propidium iodide/RNase-staining based flow cytometric analysis (reference value: 12.9 +/- 1.4%); type: functional
A2780 [4] = assay: Cytotoxicity against human A2780 cells after 96 hrs by sulforhodamine-B assay; type: functional, cell-based; conditions: A2780, 96 h
518A2 = assay: Cytotoxicity against human 518A2 cells after 96 hrs by sulforhodamine-B assay; type: functional, cell-based; conditions: 518A2, 96 h
A2780 [5] = assay: Cell cycle arrest in human A2780 cells assessed as accumulation at G2/M phase at 2 uM after 48 hrs by propidium iodide/RNase-staining based flow cytometric analysis (reference value: 12.9 +/- 1.4%); type: functional
A2780 [6] = assay: Cell cycle arrest in human A2780 cells assessed as accumulation at S phase at 1.2 uM after 48 hrs by propidium iodide/RNase-staining based flow cytometric analysis (reference value: 29.6 +/- 3.1%); type: functional
MCF7 = assay: Cytotoxicity against human MCF7 cells after 96 hrs by sulforhodamine-B assay; type: functional, cell-based; conditions: MCF7, 96 h
NIH3T3 = assay: Cytotoxicity against mouse NIH/3T3 cells after 96 hrs by sulforhodamine-B assay; type: cell-based; conditions: NIH3T3, 96 h
A2780 [7] = assay: Induction of apoptosis in human A2780 cells assessed as vital cells at 1.2 uM after 48 hrs by Annexin V-FITC/propidium iodide staining-based flow cytometric analysis (reference value: 78.4 +/- 2.1%); type: functional
A2780 [8] = assay: Cytotoxicity against human A2780 cells assessed as morphological changes after 48 hrs by acridine orange/propidium iodide staining based fluorescence microscopic method; type: functional, cell-based
A2780 [9] = assay: Cell cycle arrest in human A2780 cells assessed as accumulation at sub-G1 phase at 1.2 uM after 48 hrs by propidium iodide/RNase-staining based flow cytometric analysis; type: functional
A2780 [10] = assay: Induction of apoptosis in human A2780 cells assessed as secondary necrotic cells at 2 uM after 48 hrs by Annexin V-FITC/propidium iodide staining-based flow cytometric analysis (reference value: 8.2 +/- 0.7%); type: functional
A2780 [11] = assay: Induction of apoptosis in human A2780 cells assessed as necrotic cells at 1.2 uM after 48 hrs by Annexin V-FITC/propidium iodide staining-based flow cytometric analysis (reference value: 10.6 +/- 1.2%); type: functional
A2780 [12] = assay: Induction of apoptosis in human A2780 cells assessed as apoptotic cells at 2 uM after 48 hrs by Annexin V-FITC/propidium iodide staining-based flow cytometric analysis (reference value: 2.8 +/- 2.1%); type: functional
[13] = Selectivity index, ratio of EC50 for mouse NIH/3T3 cells to EC50 for human A2780 cells; type: toxicity; conditions: NIH/3T3 cells and A2780 cells, read-out: Ratio EC50
A2780 [14] = assay: Induction of apoptosis in human A2780 cells assessed as apoptotic cells at 1.2 uM after 48 hrs by Annexin V-FITC/propidium iodide staining-based flow cytometric analysis (reference value: 2.8 +/- 2.1%); type: functional
A2780 [15] = assay: Induction of apoptosis in human A2780 cells assessed as vital cells at 2 uM after 48 hrs by Annexin V-FITC/propidium iodide staining-based flow cytometric analysis (reference value: 78.4 +/- 2.1%); type: functional
A2780 [16] = assay: Induction of apoptosis in human A2780 cells assessed as necrotic cells at 2 uM after 48 hrs by Annexin V-FITC/propidium iodide staining-based flow cytometric analysis (reference value: 10.6 +/- 1.2%); type: functional
A2780 [17] = assay: Cell cycle arrest in human A2780 cells assessed as accumulation at S phase at 2 uM after 48 hrs by propidium iodide/RNase-staining based flow cytometric analysis (reference value: 29.6 +/- 3.1%); type: functional
HT-29 = assay: Cytotoxicity against human HT-29 cells after 96 hrs by sulforhodamine-B assay; type: functional, cell-based; conditions: HT-29, 96 h
A2780 [18] = assay: Induction of apoptosis in human A2780 cells assessed as secondary necrotic cells at 1.2 uM after 48 hrs by Annexin V-FITC/propidium iodide staining-based flow cytometric analysis (reference value: 8.2 +/- 0.7%); type: functional
A2780 [19] = assay: Cell cycle arrest in human A2780 cells assessed as accumulation at sub-G1 phase at 2 uM after 48 hrs by propidium iodide/RNase-staining based flow cytometric analysis; type: functional

SMILES: CC(=O)O[C@@H]1C[C@]2(C)[C@H]3CC=C4[C@@H]5CC(C)(C)CC[C@]5(C(=O)N(CC(=O)NCc5ccccc5)Cc5ccccc5)CC[C@@]4(C)[C@]3(C)CC[C@H]2C(C)(C)[C@H]1OC(C)=O
- EC50 (FaDu): 2100 nM
- EC50 (A549): 2200 nM
- Activity (A2780 [1]): 60.3%
- Activity (A2780 [2]): 57.1%
- Activity (A2780 [3]): 7.6%
- EC50 (A2780 [4]): 300 nM
- EC50 (518A2): 1200 nM
- Activity (A2780 [5]): 5.1%
- Activity (A2780 [6]): 28.7%
- EC50 (MCF7): 2100 nM
- EC50 (NIH3T3): 21900 nM
- Activity (A2780 [7]): 72.7%
- Activity (A2780 [8]): Dose-dependent effect
- Activity (A2780 [9]): 6.8%
- Activity (A2780 [10]): 19.8%
- Activity (A2780 [11]): 11.6%
- Activity (A2780 [12]): 8.4%
- selectivity ratio [13]: 73
- Activity (A2780 [14]): 4.2%
- Activity (A2780 [15]): 55.1%
- Activity (A2780 [16]): 16.7%
- Activity (A2780 [17]): 30.7%
- EC50 (HT-29): 2100 nM
- Activity (A2780 [18]): 11.5%
- Activity (A2780 [19]): 4.6%
